The values below come from patent US8129398B2 (priority 2008, dated 2012).

Each structure is given as a SMILES string.

This assay concerns the target T1, HIV-integrase (Human immunodeficiency virus type 1 group M subtype B, UniProt P12497).
T1 construct: Recombinant integrase (0.26 ng) was incubated with the beads
Nature of the assay: HIV-Integrase Inhibition Activity (SPA bead integration assay with P33 labeled target DNA). The format is biochemical. The settings on record: recombinant integrase, class symbols; read-out: in vitro activity. The method in brief: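 Strand integration read as bead-proximity CPM after P33 target DNA (0.1 fmol) and inhibitor were added to washed integrase–substrate DNA complexes on SPA beads. Enzyme bound 90 min at 37° C; EDTA (10 mM final) terminated reaction; IC50 graded A/B/C.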
As for `O=C(O)C(=O)NC12CCC(CC1)Cn1c2nc(C(=O)NCc2ccc(F)cc2)c(O)c1=O` [Example 84, ((2-((4-Fluorobenzyl)carbamoyl)-3-hydroxy-4-oxo-6,7,8,9-tetrahydro-7,10-ethanopyrimido[1,2-a]azepin-10(4H)-yl)amino) (oxo)acetic acid], the IC50 is under 10 nM.
As for `O=C(NC12CCC(CC1)Cn1c2nc(C(=O)NCc2ccc(F)cc2)c(O)c1=O)C(=O)N1CCC(F)(F)CC1` [Example 85, 10-(((4,4-Difluoro-1-piperidinyl) (oxo)acetyl)amino)-N-(4-fluorobenzyl)-3-hydroxy-4-oxo-4,6,7,8,9,10-hexahydro-7,10-ethanopyrimido[1,2-a]azepine-2-carboxamide], the IC50 was under 10 nM.
With `CC(=O)N[C@@H]1CCN(C(=O)C(=O)NC23CCC(CC2)Cn2c3nc(C(=O)NCc3ccc(F)cc3)c(O)c2=O)C1` [Example 86, 10-((((3R)-3-(Dcetylamino)-1-pyrrolidinyl)(oxo)acetyl)amino)-N-(4-fluorobenzyl)-3-hydroxy-4-oxo-4,6,7,8,9,10-hexahydro-7,10-ethanopyrimido[1,2-a]azepine-2-carboxamide], the IC50 is under 10 nM.
The result for `O=C(NC12CCC(CC1)Cn1c2nc(C(=O)NCc2ccc(F)cc2)c(O)c1=O)C(=O)N1CCC[C@@H]1CO` [Example 87, N-(4-Fluorobenzyl)-3-hydroxy-10-((((2R)-2-(hydroxymethyl)-1-pyrrolidinyl)(oxo)acetyl)amino)-4-oxo-4,6,7,8,9,10-hexahydro-7,10-ethanopyrimido[1,2-a]azepine-2-carboxamide] reads under 10 nM.
`COC[C@H]1CCCN1C(=O)C(=O)NC12CCC(CC1)Cn1c2nc(C(=O)NCc2ccc(F)cc2)c(O)c1=O` [Example 88, N-(4-Fluorobenzyl)-3-hydroxy-10-((((2R)-2-(methoxymethyl)-1-pyrrolidinyl)(oxo)acetyl)amino)-4-oxo-4,6,7,8,9,10-hexahydro-7,10-ethanopyrimido[1,2-a]azepine-2-carboxamide]: the IC50 is under 10 nM.
As for `COC[C@@H]1CCCN1C(=O)C(=O)NC12CCC(CC1)Cn1c2nc(C(=O)NCc2ccc(F)cc2)c(O)c1=O` [Example 89, N-(4-Fluorobenzyl)-3-hydroxy-10-((((2S)-2-(methoxymethyl)-1-pyrrolidinyl)(oxo)acetyl)amino)-4-oxo-4,6,7,8,9,10-hexahydro-7,10-ethanopyrimido[1,2-a]azepine-2-carboxamide], the figure is under 10 nM; as for `COC1CCN(C(=O)C(=O)NC23CCC(CC2)Cn2c3nc(C(=O)NCc3ccc(F)cc3)c(O)c2=O)C1` (stereo not drawn) [Example 90, N-(4-Fluorobenzyl)-3-hydroxy-10-(((3-methoxy-1-pyrrolidinyl)(oxo)acetyl)amino)-4-oxo-4,6,7,8,9,10-hexahydro-7,10-ethanopyrimido[1,2-a]azepine-2-carboxamide], under 10 nM; as for `CN(C)C(=O)[C@@H]1CCCN1C(=O)C(=O)NC12CCC(CC1)Cn1c2nc(C(=O)NCc2ccc(F)cc2)c(O)c1=O` [Example 91, 10-((((2S)-2-(Dimethylcarbamoyl)-1-pyrrolidinyl) (oxo)acetyl)amino)-N-(4-fluorobenzyl)-3-hydroxy-4-oxo-4,6,7,8,9,10-hexahydro-7,11-ethanopyrimido[1,2-a]azepine-2-carboxamide], under 10 nM.
The result for `CCOC(=O)[C@@H]1CCCN1C(=O)C(=O)NC12CCC(CC1)Cn1c2nc(C(=O)NCc2ccc(F)cc2)c(O)c1=O` [Example 92, Ethyl 1-(((2-((4-fluorobenzyl)carbamoyl)-3-hydroxy-4-oxo-6,7,8,9-tetrahydro-7,11-ethanopyrimido[1,2-a]azepin-10(4H)-yl)amino) (oxo)aceyl)-L-prolinate] reads under 10 nM; that for `CN(C)CCN(C)C(=O)C(=O)NC12CCC(CC1)Cn1c2nc(C(=O)NCc2ccc(F)cc2)c(O)c1=O` [Example 93, N-(2-(Dimethylamino)ethyl)-N′-(2-((4-fluorobenzyl)carbamoyl)-3-hydroxy-4-oxo-6,7,8,9-tetrahydro-7,10-ethanopyrimido[1,2-a]azepin-10(4H)-yl)-N-methylethanediamide], under 10 nM; that for `CN(CC1CCCO1)C(=O)C(=O)NC12CCC(CC1)Cn1c2nc(C(=O)NCc2ccc(F)cc2)c(O)c1=O` (stereo not drawn) [Example 94, N′-(2-((4-Fluorobenzyl)carbamoyl)-3-hydroxy-4-oxo-6,7,8,9-tetrahydro-7,10-ethanopyrimido[1,2-a]azepin-10(4H)-yl)-N-methyl-N-(tetrahydro-2-furanylmethyl)ethanediamide], under 10 nM.
As for `Cc1c(CN(C)C(=O)C(=O)NC23CCC(CC2)Cn2c3nc(C(=O)NCc3ccc(F)cc3)c(O)c2=O)cnn1C` [Example 95, N-((1,5-Dimethyl-1H-pyrazol-4-yl)methyl)-N′-(2-((4-fluorobenzyl)carbamoyl)-3-hydroxy-4-oxo-6,7,8,9-tetrahydro-7,10-ethanopyrimido[1,2-a]azepin-10(4H)-yl)-N-methylethanediamide], the figure is under 10 nM; as for `Cc1nn(C)cc1CN(C)C(=O)C(=O)NC12CCC(CC1)Cn1c2nc(C(=O)NCc2ccc(F)cc2)c(O)c1=O` [Example 96, N-((1,3-Dimethyl-1H-pyrazol-4-yl)methyl)-N′-(2-((4-fluorobenzyl)carbamoyl)-3-hydroxy-4-oxo-6,7,8,9-tetrahydro-7,10-ethanopyrimido[1,2-a]azepin-10(4H)-yl)-N-methylethanediamide], under 10 nM; as for `CCN(CC)C(=O)C(=O)NC12CCC(CC1)Cn1c2nc(C(=O)NCc2ccc(F)cc2)c(O)c1=O` [Example 97, N,N-Diethyl-N′-(2-((4-fluorobenzyl)carbamoyl)-3-hydroxy-4-oxo-6,7,8,9-tetrahydro-7,10-ethanopyrimido[1,2-a]azepin-10(4H)-yl)ethanediamide], under 10 nM.
In the case of `O=C(NC12CCC(CC1)Cn1c2nc(C(=O)NCc2ccc(F)cc2)c(O)c1=O)C(=O)N1CC(F)(F)C1` [Example 98, 10-(((3,3-Difluoro-1-azetidinyl) (oxo)acetyl)amino)-N-(4-fluorobenzyl)-3-hydroxy-4-oxo-4,6,7,8,9,10-hexahydro-7,10-ethanopyrimido[1,2-a]azepine-2-carboxamide], the IC50 is under 10 nM.
The result for `CC(C)CN(C)C(=O)C(=O)NC12CCC(CC1)Cn1c2nc(C(=O)NCc2ccc(F)cc2)c(O)c1=O` [Example 99, N′-(2-((4-Fluorobenzyl)carbamoyl)-3-hydroxy-4-oxo-6,7,8,9-tetrahydro-7,10-ethanopyrimido[1,2-a]azepin-10(4H)-yl)-N-methyl-N-(2-methylpropyl)ethanediamide] reads under 10 nM.
As for `COCCN(C)C(=O)C(=O)NC12CCC(CC1)Cn1c2nc(C(=O)NCc2ccc(F)cc2)c(O)c1=O` [Example 100, N′-(2-((4-Fluorobenzyl)carbamoyl)-3-hydroxy-4-oxo-6,7,8,9-tetrahydro-7,10-ethanopyrimido[1,2-a]azepin-10(4H)-yl)-N-(2-methoxyethyl)-N-methylethanediamide], the IC50 was under 10 nM.
As for `CCN(C)C(=O)C(=O)NC12CCC(CC1)Cn1c2nc(C(=O)NCc2ccc(F)cc2)c(O)c1=O` [Example 101, N-Ethyl-N′-(2-((4-fluorobenzyl)carbamoyl)-3-hydroxy-4-oxo-6,7,8,9-tetrahydro-7,10-ethanopyrimido[1,2-a]azepin-10(4H)-yl)-N-methylethanediamide], the figure is under 10 nM.
On to `O=C(NC12CCC(CC1)Cn1c2nc(C(=O)NCc2ccc(F)cc2)c(O)c1=O)C(=O)N1CCC(F)CC1` [Example 102, N-(4-Fluorobenzyl)-10-(((4-fluoro-1-piperidinyl)(oxo)acetyl)amino)-3-hydroxy-4-oxo-4,6,7,8,9,10-hexahydro-7,10-ethanopyrimido[1,2-a]azepine-2-carboxamide], for which the IC50 is under 10 nM.
As for `O=C(NC12CCC(CC1)Cn1c2nc(C(=O)NCc2ccc(F)cc2)c(O)c1=O)C(=O)N1CC[C@H](F)C1` [Example 103, N-(4-Fluorobenzyl)-10-((((3S)-3-fluoro-1-pyrrolidinyl)(oxo)acetyl)amino)-3-hydroxy-4-oxo-4,6,7,8,9,10-hexahydro-7,10-ethanopyrimido[1,2-a]azepine-2-carboxamide], the figure is under 10 nM; as for `O=C(NC12CCC(CC1)Cn1c2nc(C(=O)NCc2ccc(F)cc2)c(O)c1=O)C(=O)N1CC[C@@H](F)C1` [Example 104, N-(4-Fluorobenzyl)-10-((((3R)-3-fluoro-1-pyrrolidinyl)(oxo)acetyl)amino)-3-hydroxy-4-oxo-4,6,7,8,9,10-hexahydro-7,10-ethanopyrimido[1,2-a]azepine-2-carboxamide], under 10 nM; as for `CC(C)N(C)C(=O)C(=O)NC12CCC(CC1)Cn1c2nc(C(=O)NCc2ccc(F)cc2)c(O)c1=O` [Example 105, N′-(2-((4-Fluorobenzyl)carbamoyl)-3-hydroxy-4-oxo-6,7,8,9-tetrahydro-7,10-ethanopyrimido[1,2-a]azepin-10(4H)-yl)-N-methyl-N-(1-methylethyl)ethanediamide], under 10 nM.
The result for `Cc1cnnn1-c1cc(F)ccc1CNC(=O)c1nc2n(c(=O)c1O)CC1CCC2(NC(=O)C(=O)N(C)C)CC1` [Example 106, N′-(2-((4-Fluoro-2-(5-methyl-1H-1,2,3-triazol-1-yl)benzyl)carbamoyl)-3-hydroxy-4-oxo-6,7,8,9-tetrahydro-7,10-ethanopyrimido[1,2-a]azepin-10(4H)-yl)-N,N-dimethylethanediamide] reads 10 to 100 nM; that for `CN(C)C(=O)C(=O)NC12CCC(CC1)Cn1c2nc(C(=O)NCc2ccc(F)cc2-c2ncnn2C)c(O)c1=O` [Example 107, N′-(2-((4-Fluoro-2-(1-methyl-1H-1,2,4-triazol-5-yl)benzyl)carbamoyl)-3-hydroxy-4-oxo-6,7,8,9-tetrahydro-7,10-ethanopyrimido[1,2-a]azepin-10(4H)-yl)-N,N-dimethylethanediamide], 10 to 100 nM.
